Test system: zebrafish embryos
Assay: Zebrafish embryo phenotypic assay (ZF)
Type: in vivo
Conditions: wild-type embryonic zebrafish, dosed 5 hpf
Protocol: All zebrafish experiments were approved by Vanderbilt University Institutional Animal Care and Use Committee. Wild-type zebrafish of AB strain were maintained using standard protocols. Chemical screen for small molecules was performed as previously described. Briefly, pairs of zebrafish were mated, and fertilized eggs were arrayed in 96-well microtiter plates (5 embryos/well) containing 250 μl E3 water. At ˜4-hpf, small molecule library from Vanderbilt High Throughput Screening Facility was added to each well to the final concentration of 5 μM. Embryos were incubated at 28.5° C. until 24 and 48-hpf, when they were examined for gross morphologic changes indicative of disruption in embryonic patterning. A total of ˜30,000 compounds were screened.
ZF refers to wild-type embryonic zebrafish phenotypic assay involving dosing n=˜10 embryos in E3 egg water with compound from either a stock of 1 mM or 10 mM in DMSO at 5 hours post-fertilization and observing at 24, 48, and 72 hours post-fertilization.

SMILES	ZF Phenotype EC100 [µM]
C=C(C)Cn1c(SCc2nc3ccc(S(=O)(=O)Nc4ccccc4OC)cc3[nH]2)nc2sc3c(c2c1=O)CCCC3 [KK-093-2]	>50
C=C(C)Cn1c(SCC(=O)c2cc3ccccc3s2)nc2sc3c(c2c1=O)CCCC3 [KK-14-093-1]	>50
CC(C1CC1)n1c(SCC(=O)c2ccccc2)nc2sccc2c1=O (stereo not drawn) [JEH-2-003]	30
O=C(CSc1nc2sc3c(c2c(=O)n1-c1ccccn1)CCCC3)c1cccs1 [JEH-1-034]	1
O=C(CSc1nc2sc3c(c2c(=O)n1C1CC1)CCN(S(=O)(=O)c1ccc(Cl)cc1)C3)c1ccccc1 [KYK-1-58]	>50
C=C(C)Cn1c(SCc2nc3ccc(C(=O)O)cc3[nH]2)nc2sc3c(c2c1=O)CCCC3 [KK-14-096-1]	>50
C=C(C)Cn1c(SCC(=O)c2ccc(Cl)s2)nc2sc3c(c2c1=O)CCCC3 [KK-14-094-2]	>50
O=C(O)c1ccc(-n2c(SCC(=O)c3cccs3)nc3sc4c(c3c2=O)CCCC4)cc1 [JEH-1-066]	>50
COc1ccc(-c2cc3c(=O)n(C4CC4)c(SCC(=O)c4ccccc4)nc3s2)cc1 [JEH-2-018]	>50
C#CCNC(=O)CSc1nc2sc3c(c2c(=O)n1CC(=C)C)CCCC3 [JEH-2-060]	30
CCCCN1CCc2c(sc3nc(SCC(=O)c4ccccc4)n(C4CC4)c(=O)c23)C1 [KYK-1-103-2]	>50
CC(C1CC1)n1c(SCC(=O)Nc2ccccn2)nc2sccc2c1=O (stereo not drawn) [JEH-2-041-1]	20
C=C(C)Cn1c(SCc2nc3ccc(Cl)cc3o2)nc2sc3c(c2c1=O)CCCC3 [KK-14-094-3]	>50
O=C(CSc1nc2sc3c(c2c(=O)n1-c1ccc(Cl)cn1)CCCC3)c1cccs1 [JEH-1-050-2]	25
Cn1cnc(S(=O)(=O)N2CCc3c(sc4nc(SCC(=O)c5ccccc5)n(C5CC5)c(=O)c34)C2)c1 [KYK-1-66]	>50
O=C(CSc1nc2sc3c(c2c(=O)n1-c1ccc(Br)cc1)CCCC3)c1cccs1 [JEH-1-050-1]	>50
O=C(CSc1nc2sccc2c(=O)n1CC1CC1)c1cccs1 [JEH-1-065-1]	5
COC(=O)c1c(NC(=S)SC)sc2c1CCNC2 [KYK-1-87]	>50
O=c1c2ccsc2nc(SCc2ccc(Br)cc2)n1C1CC1 [JEH-1-190-2]	50

SMILES	ZF Phenotype EC100 [µM]
O=C(CSc1nc2sc3c(c2c(=O)n1C1CC1)CCNC3)c1cccs1 [JEH-1-097]	>50
C=C(C)Cn1c(SCC(=O)c2cc3ccccc3o2)nc2sc3c(c2c1=O)CCCC3 [KK-14-094-1]	>50
O=C(CSc1nc2sc3c(c2c(=O)n1C1CC1)CCN(Cc1ccco1)C3)c1ccccc1 [KYK-1-103-1]	>50
O=C(CSc1nc2sccc2c(=O)n1C1CC1)N1CCOCC1 [JEH-1-103]	>50
O=C(CSc1nc2sc(-c3ccc(F)cc3)cc2c(=O)n1C1CC1)c1ccccc1 [JEH-2-034]	>50
O=c1c2ccsc2nc(SCc2ccccc2)n1C1CC1 [JEH-1-190-1]	50
COC(=O)c1c(NC(=S)NC2CC2)sc2c1CCNC2 [KYK-1-96]	>50
O=C(CSc1nc2sc3c(c2c(=O)n1C1CC1)CCN(C(=O)C1CC1)C3)c1cccs1 [JEH-1-124]	>50
C=C(C)Cn1c(SCC(=O)N2CCOCC2)nc2sccc2c1=O [JEH-1-104]	>50
O=C(CSc1nc2sc3c(c2c(=O)n1C1CC1)CCN(CCCc1ccccc1)C3)c1ccccc1 [KYK-1-88]	>50
O=C(CSc1nc2sc3c(c2c(=O)n1C1CC1)CCN(S(=O)(=O)c1ccc([N+](=O)[O-])cc1)C3)c1ccccc1 [KYK-1-61]	>50
C=C(C)Cn1c(SCc2nc3cc(OC)ccc3o2)nc2sc3c(c2c1=O)CCCC3 [KK-14-096-2]	>50
CC(C1CC1)n1c(SCC(=O)Nc2ccccc2O)nc2sccc2c1=O (stereo not drawn) [JEH-2-041-2]	30
CSc1nc2sccc2c(=O)n1C1CC1 [JEH-1-131-2]	>50
CSc1nc2sc3c(c2c(=O)n1C1CC1)CCCC3 [JEH-1-127]	>50
O=C(CSc1nc2sc3c(c2c(=O)n1C1CC1)CCN(C(=O)c1ccc(Cl)cc1)C3)c1ccccc1 [KYK-1-54]	>50
O=c1c2c3c(sc2[nH]c(=S)n1C1CC1)CNCC3 [KYK-1-99]	>50
O=C(CSc1nc2sccc2c(=O)n1CC1CC1)c1ccccc1 [JEH-2-007-1]	10
COC(=O)c1cc(-c2ccc(F)cc2)sc1NC(=S)NC1CC1 [JEH-2-026]	25

Test system: Hedgehog signaling (TM3-Gli-Luc)
Assay: TM3-Gli-Luc luciferase reporter assay stimulated with 20 nM SAG
Type: cell-based
Conditions: not given
Protocol: TM3-Gli-Luc cells were maintained on sterile 0.1% gelatin (from porcine skin, Type A, prepared in MilliQ water, autoclaved, then sterile-filtered) in 1:1 Dulbecco's Modified Eagle Medium (DMEM)/F12 supplemented with 5% horse serum, 2.5% fetal bovine serum (FBS), and 15 mM HEPES, hereafter referred to as TM3 Culture Medium. For small molecule evaluation, TM3-Gli-Luc cells were assayed on 0.1% gelatin in DMEM/F12 supplemented with 2.5% FBS and 15 mM HEPES, hereafter referred to as TM3Luc Medium. Sufu^−/− cells were maintained in DMEM supplemented with 4.5 g/L D-glucose, L-glutamine, 25 mM HEPES, and 10% FBS, hereafter referred to as D10 FBS. For small molecule evaluation, Sufu^−/− cells were assayed in DMEM supplemented with 4.5 g/L D-glucose, L-glutamine, 25 mM HEPES, and 0.5% FBS, hereafter referred to as D0.5 FBS. All cells were cultured at 37° C. with a 5% CO2 atmosphere.
On the day of cell plating, 96-well plates were coated with 50 μL/well of sterile 0.1% gelatin for 5 minutes then aspirated and replaced with 50 μL/well of TM3 Culture Medium. TM3-Gli-Luc cells were seeded at a density of 5,000 cells/well in TM3 Culture Medium and incubated for 24 hours. A master mix of 20 nM SAG in TM3Luc Medium was prepared, and small molecule solutions were prepared by adding the desired amount of compound from 10 mM DMSO stock to TM3Luc Medium containing 20 nM SAG. Negative control was prepared by adding an equi-volume amount of DMSO as compared to small molecule treated conditions to TM3Luc Medium not containing SAG. Cell plating medium was aspirated and replaced with 100 μL/well of prepared small molecule-containing media, and plates were incubated for 48 hours before proceeding to luciferase activity and cell viability reading.
TM3Luc Medium from compound treated plates was aspirated and replaced with 82 μL/well of Glo Lysis Buffer (Promega, Madison, Wis., USA), and plates were shaken at 300 rpm and room temperature for 12 minutes. Lysate was split between two white 96-well plates, 45 μL/well and 25 μL/well for luciferase reading and cell viability respectively. For luciferase activity monitoring, 45 μL/well of Steady Glo (Promega, Madison, Wis., USA) was added to 45 μL/well of cell lysate, incubated at room temperature for 5 minutes, then luminescence was measured on a Turner Biosystems Modulus Microplate Reader (Sunnyvale, Calif., USA) with an integration time of 0.5 seconds. For cell viability measurement, 25 μL/well of Cell Titer Glo (Promega, Madison, Wis., USA) (prepared by 1:10 dilution with Glo Lysis Buffer) was added to 25 μL/well of cell lysate, incubated at room temperature for 5 minutes, then luminescence was measured as above.
Luciferase activity data (Steady Glo) was divided by corresponding cell viability data (Cell Titer Glo) to arrive at a live cell number-normalized luciferase activity reading. The average of negative control data (DMSO treated) was subtracted from all wells, and percent activity was calculated by dividing all wells by the positive control (SAG treated) average. […] At least two independent assays tested on separate days were averaged to provide EC50±standard error of the mean.

SMILES	TM3 G8 Luciferase % Inh., 2 pM [%]
C=C(C)Cn1c(SCC(=O)N2CCCC[C@H]2C)nc2sc3c(c2c1=O)CCCC3 [JEH-4-136]	44.3

Same assay, conditions: 0.5 pM as printed

SMILES	TM3 G8 Luciferase % Inh., 0.5 pM [%]
C=C(C)Cn1c(SCC(=O)N2CCCC[C@H]2C)nc2sc3c(c2c1=O)CCCC3 [JEH-4-136]	3.7

Same assay, conditions: 20 nM SAG

SMILES	Hh inhibitory activity / potency in words
O=C(CNc1nc2sccc2c(=O)n1C1CC1)c1ccccc1 [Formula 22b]	complete loss of inhibition
CC(O)(CSc1nc2sccc2c(=O)n1C1CC1)c1ccccc1 (stereo not drawn) [Formula 20b]	only modest potency reductions
C=C(C)Cn1c(SCC(=O)c2cccs2)nccc1=O [Formula 12]	complete loss of Hh inhibitory activity
C=C(C)Cn1c(SCC(=O)c2cccs2)nccc1=O [Formula 14a]	complete loss of activity
O=C(COc1nc2sccc2c(=O)n1C1CC1)c1ccccc1 [Formula 22a]	complete loss of inhibition

Same assay, conditions: 20 nM SAG; read-out: EC50

SMILES	EC50 [µM]
C=C(C)Cn1c(SCC(=O)c2cccs2)nc2sc3c(c2c1=O)CCCC3 [EGM1]	1.34

Same assay, conditions: TM3-Gli-Luc reporter line stimulated with 20 nM SAG; mean ± SEM; Table 13; read-out: TM3-Gli-Luc EC50

SMILES	EC50 [µM]
C=C(C)Cn1c(SCC(=O)c2cccs2)nccc1=O [Formula 12]	> 20
C=C(C)Cn1c(SCC(=O)c2cccs2)nccc1=O [Formula 14a]	> 20

Same assay, conditions: Table 9A; read-out: TM3 G8 Luciferase EC 50

SMILES	EC50 [µM]
C=C(C)Cn1c(SCCc2cccs2)nc2sc3c(c2c1=O)CCCC3 [JEH-4-135]	5.5
O=C(CSc1nc2sc3ccccc3c2c(=O)n1C1CC1)N1CCCCC1 [JEH-4-055-2]	6.03
O=C(CSc1nc2sc3ccccc3c2c(=O)n1C1CC1)c1ccccc1 [JEH-4-055-1]	16.6
C=C(C)Cn1c(NCC(=O)c2cccs2)nc2sc3c(c2c1=O)CCCC3 [JEH-5-052]	25
Cc1sc2nc(SCC(=O)c3ccccc3)n(C3CC3)c(=O)c2c1C [JEH-5-087]	31.6
C=C(C)Cn1c(SCC(=O)c2cccs2)nc2sc3c(c2c1=O)CCSC3 [JEH-4-143]	2.51
